The text below walks through data of patent US9229013B2, “Vasoactive hormone-based stratification of patients suffering from diseases related to endothelial function/dysfunction” (B.R.A.H.M.S GMBH, priority 2009, dated 2016).

Marks after values point to notes of the source that are not given here. A value given as a limit tells only on which side of the number the result lay.

Common to all, as to type: in vivo, human
Experiment [1] deals with patients having suffered from ischemic or haemorrhagic stroke or TIA. The experiment can be described thus: COSMOS study: survival (deaths), hazard ratio medication vs no medication, stratified by biomarker quintile. Particulars: for effect of administration at high (higher) levels of vasoactive hormones / effect of administration at low (lower) levels of vasoactive hormones: COSMOS study, summary of Table 2; for HR Medicament Marker-Quintile 1 / HR Medicament Marker-Quintile 2-4 / HR Medicament Marker-Quintile 5 / HR Medicament (overall patient group): COSMOS. From the text: (§1) Suitable threshold levels for the stratification of subjects into different groups (categories) have to be determined for each particular combination of vasoactive hormone or fragments thereof or precursors or fragments thereof, medication and disease. This can e.g. be done by grouping a reference population of patients according to their level of vasoactive hormone into certain quantiles, e.g. tertiles, quartiles, quintiles or even according to suitable percentiles. […] A HR around 1 (e.g. +/−0.1) indicates no elevated risk but also no benefit from medication for the particular group of patients. By comparison of the HR between certain quantiles of patients with each other and with the HR of the overall population of patients, it is possible to identify those quantiles of patients who have an elevated risk and those who benefit from medication and thereby stratify subjects according to the present invention.
FIGS. 9 to 13 illustrate the survival rate for patients suffering from ischemic stroke, hemorrhagic stroke or transient ischemic attack from the “Copeptin to guide disease severity and Management, Osmostatus and Stress” (“COSMOS”).
The study was set at the emergency and neurological and neurosurgical clinic of the University Hospital of Basel. All consecutive patients who are admitted to the emergency department with an ischemic or hemorrhagic stroke or transient ischemic attack (TIA) according to the World Health Organization criteria with symptom onset within the last 3 days were included into the study. Patients without an informed consent were excluded.
Step 5. In patients with ischemic stroke a telephone follow-up regarding morbidity and mortality (as assessed by the Barthel Index and Ranking Scale) will be obtained after 3 months. An unfavorable outcome will be defined as a Barthel index <85 or modified Ranking scale of 3 to 6. II) Post-Myocardial Infarction (MI) Patients (Leicester Acute Myocardial Infarction Peptide Study (“LAMP”)) Study Population:
(§2) Survival rates, i.e. the proportion of patients surviving at a given time after entry into the studies, are plotted in the appended figures over time for different combinations of a particular vasoactive hormone with a particular medication. The patients have been stratified into quintiles according to their respective hormone levels. […] For some cases, two or more quintiles have been pooled were appropriate. Hazard ratios (HR) have been calculated for various combinations of particular vasoactive hormones with particular medications. HR have also been calculated for particular quintiles and/or pooled quintiles and compared to overall HR for each combination.
Table 2 lists the results for the patients from the COSMOS study (patients having suffered from ischemic or haemorrhagic stroke or TIA).

The subject of experiment [2] is patients having suffered a myocardial infarction. Description: LAMP study (Outcome Death): hazard ratio medication vs no medication, stratified by biomarker quintile. Particulars: LAMP, Outcome Death.
From the text: Suitable threshold levels for the stratification of subjects into different groups (categories) have to be determined for each particular combination of vasoactive hormone or fragments thereof or precursors or fragments thereof, medication and disease. This can e.g. be done by grouping a reference population of patients according to their level of vasoactive hormone into certain quantiles, e.g. tertiles, quartiles, quintiles or even according to suitable percentiles. […] A HR around 1 (e.g. +/−0.1) indicates no elevated risk but also no benefit from medication for the particular group of patients.
(§3) FIGS. 14 to 21 illustrate the survival rate for patients suffering from myocardial infarction from the “Leicester Acute Myocardial Infarction Peptide Study” (“LAMP”). FIGS. 22 to 34 illustrate the rate of major cardiac events for patients suffering from acute myocardial infarction from “LAMP-Study”.
Acute myocardial infarction was subcategorized into ST-segment elevation myocardial infarction (STEMI) or non-ST-segment myocardial infarction (NSTEMI).
Blood samples were drawn on 1 occasion 3 to 5 days after the onset of chest pain. After 15 min bed rest, 20 ml blood was collected into tubes containing ethylendiaminetetraacetic acid (EDTA) and aprotinin. All plasma samples were stored at −70° C. until assayed in a blinded fashion in a single batch.
as §2

Experiment [3] has the same test system. Description: LAMP study (Outcome MACE): hazard ratio medication vs no medication, stratified by biomarker quintile.
From the text: as §1, §3
The study involved 983 consecutive patients with acute myocardial infarction (AMI) admitted to the Coronary Care Unit of Leicester Royal Infirmary. […] Acute myocardial infarction was subcategorized into ST-segment elevation myocardial infarction (STEMI) or non-ST-segment myocardial infarction (NSTEMI).
Blood samples were drawn on 1 occasion 3 to 5 days after the onset of chest pain. After 15 min bed rest, 20 ml blood was collected into tubes containing ethylendiaminetetraacetic acid (EDTA) and aprotinin. All plasma samples were stored at −70° C. until assayed in a blinded fashion in a single batch. In a subgroup of 132 patients from the original 983-patient cohort, blood sampling was performed daily for 5 days from admission to discharge.
as §2

As to `COC(=O)[C@H](c1ccccc1Cl)N1CCc2sccc2C1` [Plavix], in experiment [1], the “effect of administration at high (higher) levels of vasoactive hormones” value was “positive effect” and the “effect of administration at low (lower) levels of vasoactive hormones” value was “unfavourable effect”. Also, in experiment [1] (MR-proADM 0.05-0.47 nmol/L), the “HR Medicament Marker-Quintile 1” value is 1.8. Moreover, the “HR Medicament Marker-Quintile 2-4” value in experiment [1] (MR-proADM 0.47-0.91 nmol/L) was found to be 0.2. For the same compound, the “HR Medicament Marker-Quintile 5” value in experiment [1] (MR-proADM 0.91-5.49 nmol/L) is 0.1. Moreover, in experiment [1] (biomarker MR-proADM), the “HR Medicament (overall patient group)” value is given as 0.3.
Turning to `O=C(NCCO[N+](=O)[O-])c1cccnc1` [Nicorandil], the “HR Medicament in Marker-Quantile 1” value in experiment [2] (NT-proBNP 0.3-204 pg/mL) is listed as 4.8; in experiment [3] (CT-proET-1 4.6-56.6 pmol/L) it was 7.1. The “HR Medicament in Marker-Quantile 2-4” value in experiment [2] (NT-proBNP 204-3160 pg/mL) is reported as <0.1; in experiment [3] (CT-proET-1 56.6-118 pmol/L), 1.2. The “HR Medicament in Marker-Quantile 5” value in experiment [2] (NT-proBNP 3160-11800 pg/mL) was 0.5; in experiment [3] (CT-proET-1 118-671 pmol/L), 0.7. Moreover, the figures for the “HR Medicament (overall patient group)” value in experiment [2] (biomarker NT-proBNP) and in experiment [3] (biomarker CT-proET-1) were 0.5 and 1.2, respectively.
`CC(=O)Oc1ccccc1C(=O)O` [Acetylsalicylic acid]: the “HR Medicament in Marker-Quantile 1” value in experiment [2] (CT-proAVP 0.31-4.6 pmol/L), in experiment [2] (MR-proADM 0.035-0.47 nmol/L), in experiment [2] (MR-proANP 14.5-59.6 pmol/L) and in experiment [2] (NT-proBNP 0.12-184 pg/mL) was >100 throughout. For the same compound, the “HR Medicament in Marker-Quantile 2-4” value in experiment [2] (CT-proAVP 4.6-42.1 pmol/L) is 0.4; in experiment [2] (MR-proADM 0.47-1.18 nmol/L), 0.5; in experiment [2] (MR-proANP 59.6-283 pmol/L), 0.4; in experiment [2] (NT-proBNP 184-2700 pg/mL) it was 0.3. In addition, the “HR Medicament in Marker-Quantile 5” value came out at 0.3 in experiment [2] (CT-proAVP 42.1-1040 pmol/L), 0.3 in experiment [2] (MR-proADM 1.18-6.75 nmol/L), 0.4 in experiment [2] (MR-proANP 283-1650 pmol/L) and 0.5 in experiment [2] (NT-proBNP 2700-34100 pg/mL). The “HR Medicament (overall patient group)” value is 0.3 in experiment [2] (biomarker CT-proAVP); 0.3 in experiment [2] (biomarker MR-proADM); 0.3 in experiment [2] (biomarker MR-proANP); 0.3 in experiment [2] (biomarker NT-proBNP); 1.3 in experiment [1] (biomarker CT-proAVP); 1.4 in experiment [1] (biomarker CT-proET-1). Moreover, the figures for the “HR Medicament (overall patient group)” value in experiment [1] (biomarker MR-proADM) and in experiment [1] (biomarker MR-proANP) were 1 and 1.3, respectively. Besides, in experiment [1], the “effect of administration at high (higher) levels of vasoactive hormones” value is on record as “unfavourable effect”. In experiment [1], the “effect of administration at low (lower) levels of vasoactive hormones” value was “positive effect”. Besides, the “HR Medicament Marker-Quintile 5” value was 2.6 in experiment [1] (CT-proAVP 23.5-499 pmol/L), 2.5 in experiment [1] (CT-proET-1 93.1-368 pmol/L), 2.4 in experiment [1] (MR-proADM 0.91-5.49 nmol/L) and 2.3 in experiment [1] (MR-proANP 240-1560 pmol/L). Further, the “HR Medicament Marker-Quintile 1” value in experiment [1] (CT-proET-1 4.5-55.5 pmol/L) is reported as 0.5; in experiment [1] (MR-proADM 0.05-0.47 nmol/L), 0.6; in experiment [1] (MR-proANP 20.8-71.6 pmol/L), <0.1. The “HR Medicament Marker-Quintile 2-4” value in experiment [1] (CT-proET-1 55.5-93.1 pmol/L) was 1.5; in experiment [1] (MR-proADM 0.47-0.91 nmol/L), 0.7; in experiment [1] (MR-proANP 71.6-240 pmol/L), 1.7; in experiment [1] (Quintiles 1 to 4 are pooled, CT-proAVP 0.69-23.5 pmol/L) it was 0.8*. Also, the deaths with medication in experiment [1] (FIG. 12A, marker MR-proANP, overall population, n=209 with medication) came out at 20; in experiment [1] (FIG. 12B, 1st MR-proANP quintile (22.3-69.5 pmol/L), n=51 with medication) it was 0; in experiment [1] (FIG. 12C, 2nd to 4th MR-proANP quintiles (69.5-250 pmol/L), n=124 with medication) it was 6; in experiment [1] (FIG. 12D, 5th MR-proANP quintile (250-1540 pmol/L), n=34 with medication), 14.
